The source made the active and inactive calls.
Key:
Kallikrein-7 = Kallikrein-7 (Homo sapiens, UniProt P49862); assay: Fluorescence Intensity-based biochemical primary high throughput dose response assay to identify activators of kallikrein-7 (K7) zymogen.
[1] = target: Female germline-specific tumor suppressor gld-1 (Caenorhabditis elegans, UniProt Q17339); assay: blockers of GLD-1/TGE RNA complex formation – biochemical, fluorescence polarization, C. elegans, dose response (AID 2802);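 also: fluorescence polarization of labeled TGE RNA bound by purified gld-1 protein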
Protein Rev = Protein Rev (Human immunodeficiency virus type 1 group M subtype B (isolate HXB2)(HIV-1), UniProt P04618); assay: blockers of HIV Rev/RRE RNA complex – biochemical, fluorescence polarization, HIV-1, dose response (AID 434976); parameters: species or system Human immunodeficiency virus 1
[2] = target: Acyl-homoserine lactone acylase PvdQ (Pseudomonas aeruginosa (strain LESB58), UniProt Q9I194); assay: PvdQ acylase enzyme activity blockers – biochemical, fluorescence, plate reader and imaging, cherry-picks, dose response (AID 493231)
[3] = target: Melanin-concentrating hormone receptor 1 (Homo sapiens, UniProt Q99705); assay: Late-stage fluorescence-based counterscreen for antagonists of the G-protein coupled receptor 7 (GPR7): cell-based dose response assay to identify antagonists of the melanin-concentrating hormone receptor 1 (MCHR1). [Related pubchem assays (depositor defined):AID1861, AID1880, AID1952, AID2148, AID2251, AID2257, AID485339]; format: functional;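 also: stimulated with 30 nM MCH peptide agonist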
[4] = target: T1, Kappa-type opioid receptor (Homo sapiens, UniProt P41145); assay: SAR analysis of small molecule antagonists of the kappa opioid receptor via a luminescent beta-arrestin assay - Set 3. [Related pubchem assays (depositor defined):AID1777, AID1778, AID1785, AID1786, AID1966, AID2133, AID2136, AID2285, AID2495]; format: functional
[5] = target: Delta-type opioid receptor (Homo sapiens, UniProt P41143); assay: SAR Analysis of Antagonists of the DOR Receptor using an Image-Based Assay - Set 3. [Related pubchem assays (depositor defined):AID1777, AID1785]; format: functional;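 also: U2OS cells expressing DOR1 and beta-arrestin GFP stimulated with 100 nM SNC80; imaging of GFP-tagged beta-arrestin moving into spots after receptor activation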
Mu-type opioid receptor = Mu-type opioid receptor (Homo sapiens, UniProt P35372); assay: SAR Analysis of Antagonists of the MOR Receptor using an Image-Based Assay - Set 3. [Related pubchem assays (depositor defined):AID1777, AID1785, AID1786, AID1966, AID2133, AID2136, AID2284, AID2285, AID2420]; format: functional
[6] = target: T1, Kappa-type opioid receptor; assay: SAR analysis of Antagonists of the Kappa Opioid Receptor (KOR) using an Image-Based Assay - Set 3. [Related pubchem assays (depositor defined):AID1777, AID1785]; format: functional
Hexokinase = Hexokinase (Trypanosoma brucei, UniProt Q38C41); assay: Confirmation assay for inhibitors of Trypanosoma brucei hexokinase 1-Analogue-first series. [Related pubchem assays (depositor defined):AID1430, AID1632, AID2516, AID2560, AID2579, AID2600, AID449725, AID492951]; format: functional
[7] = test system: Streptococcus sp. 'group A'; assay: Streptococcus pyogenes SK(-)GAS viability under kanamycin – luminescence, BacTiterGlo, confirmation, counter-screen for streptokinase expression inhibitor project, dose response (AID 1900); format: functional, organism-based
Vero [8] = assay: cells; format: functional, Chlorocebus sabaeus; settings: Chlorocebus sabaeus, Vero
[9] = target: T1, Kappa-type opioid receptor; format: functional
HEK293 [10] = assay: cells; format: functional, cell-based; settings: Homo sapiens
INS1 = assay: INS-1E survival protection against cytokine death – cell-based, luminescence, retest, dose response (AID 449756); format: functional; settings: Rattus norvegicus;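 also: cell death triggered by IL-1 beta plus TNF-alpha plus IFN-gamma mixture; protective hits raise ATP signal compared with cytokine alone wells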
[11] = target: Nucleotide-binding oligomerization domain-containing protein 2 (Homo sapiens, UniProt Q9HC29); assay: inhibition of NOD2-driven NF-kB reporter – cell-based, luminescence, uHTS, HEK293 (AID 1566); format: functional
Beta-galactosidase = Beta-galactosidase (Escherichia coli, UniProt Q8VNN2); format: functional
HEK293 [12] = assay: cells; format: functional, cell-based; settings: Homo sapiens; remark: listed apart in the source
Streptococcus = assay: GAS UMAA2166 growth inhibition – luminescence, BacTiterGlo, counter-screen for streptokinase expression inhibitor project, dose response (AID 1915); format: functional, organism-based;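 also: potency for reduction of bacterial viability or growth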
Nonstructural protein 1 = Nonstructural protein 1 (Influenza A virus, UniProt Q194T2); format: functional, Influenza A virus (A/California/07/2009(H1N1))
HEK293 [13] = assay: inhibition of NOD1-driven NF-kB reporter – cell-based, luminescence, uHTS, primary screen (AID 1578); format: functional; settings: Homo sapiens
[14] = target: T1, Kappa-type opioid receptor; format: functional; remark: listed apart in the source
[15] = luciferase reporter signal suppression in cells – H4 neuroglioma cells, luminescence, dose response (AID 1990); format: functional, cell-based
HEK293 [16] = assay: cells; format: functional, cell-based; settings: Homo sapiens; remark: listed apart in the source
HEK293 [17] = assay: NOD2 signaling inhibitors in MDP-stimulated cells, cell-based, uHTS, luminescence (AID 2001); format: functional; settings: Homo sapiens
[18] = Luminescence Cell-Based Dose Response HTS to Identify Inhibitors of 5'UTR Stem-Loop Driven Prion Protein mRNA Translation in H4 Neuroglioblastoma Cells. [Related pubchem assays: 1827 (Project Summary), 1813 (Primary HTS)]; format: functional
[19] = A Cell Based Secondary Assay To Explore Cytotoxicity of Compounds that Sensitize Mycobacterium Tuberculosis to Beta-Lactam Antibiotics.; format: functional
Vero [20] = assay: cells; format: functional, cell-based, Chlorocebus sabaeus; settings: Chlorocebus sabaeus, Vero
[21] = alpha-synuclein stem-loop luciferase translation blockers – H4 neuroglioma cells, luminescence, confirmation (AID 1988); format: functional, cell-based

T1 sequence (P41145 whole entry): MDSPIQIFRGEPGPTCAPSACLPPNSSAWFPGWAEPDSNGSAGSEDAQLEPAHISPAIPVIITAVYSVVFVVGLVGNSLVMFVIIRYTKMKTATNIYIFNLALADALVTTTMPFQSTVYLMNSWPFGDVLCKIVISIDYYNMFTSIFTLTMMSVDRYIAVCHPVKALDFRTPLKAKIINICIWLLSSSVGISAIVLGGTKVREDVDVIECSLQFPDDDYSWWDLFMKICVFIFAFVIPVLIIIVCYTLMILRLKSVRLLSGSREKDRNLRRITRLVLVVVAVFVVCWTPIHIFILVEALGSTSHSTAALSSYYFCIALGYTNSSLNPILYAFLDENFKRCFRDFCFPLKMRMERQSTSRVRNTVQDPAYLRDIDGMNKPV
Chain of Hexokinase (Q38C41 whole entry): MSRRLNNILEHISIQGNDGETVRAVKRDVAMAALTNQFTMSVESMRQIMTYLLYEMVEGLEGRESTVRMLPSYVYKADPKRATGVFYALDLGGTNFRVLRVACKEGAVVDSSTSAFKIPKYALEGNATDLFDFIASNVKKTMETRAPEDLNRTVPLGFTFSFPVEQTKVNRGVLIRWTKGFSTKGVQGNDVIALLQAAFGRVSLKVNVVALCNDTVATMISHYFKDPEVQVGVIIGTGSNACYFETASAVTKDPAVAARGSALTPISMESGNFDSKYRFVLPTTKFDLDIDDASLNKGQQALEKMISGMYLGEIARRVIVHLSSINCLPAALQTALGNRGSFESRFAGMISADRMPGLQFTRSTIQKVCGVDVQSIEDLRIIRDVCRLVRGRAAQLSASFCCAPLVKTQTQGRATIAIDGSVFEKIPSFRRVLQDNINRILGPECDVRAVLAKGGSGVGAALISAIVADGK
Chain of Melanin-concentrating hormone receptor 1 (Q99705 whole entry): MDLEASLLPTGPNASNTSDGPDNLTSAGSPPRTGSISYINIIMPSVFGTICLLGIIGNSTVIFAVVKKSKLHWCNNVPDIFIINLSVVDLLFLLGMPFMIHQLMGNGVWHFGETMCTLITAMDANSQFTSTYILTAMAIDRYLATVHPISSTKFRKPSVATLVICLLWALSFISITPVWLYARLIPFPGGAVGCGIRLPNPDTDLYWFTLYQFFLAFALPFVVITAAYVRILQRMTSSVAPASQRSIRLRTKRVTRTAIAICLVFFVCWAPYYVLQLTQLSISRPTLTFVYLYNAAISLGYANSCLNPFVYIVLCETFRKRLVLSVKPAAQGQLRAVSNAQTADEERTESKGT
Chain of Mu-type opioid receptor (P35372 whole entry): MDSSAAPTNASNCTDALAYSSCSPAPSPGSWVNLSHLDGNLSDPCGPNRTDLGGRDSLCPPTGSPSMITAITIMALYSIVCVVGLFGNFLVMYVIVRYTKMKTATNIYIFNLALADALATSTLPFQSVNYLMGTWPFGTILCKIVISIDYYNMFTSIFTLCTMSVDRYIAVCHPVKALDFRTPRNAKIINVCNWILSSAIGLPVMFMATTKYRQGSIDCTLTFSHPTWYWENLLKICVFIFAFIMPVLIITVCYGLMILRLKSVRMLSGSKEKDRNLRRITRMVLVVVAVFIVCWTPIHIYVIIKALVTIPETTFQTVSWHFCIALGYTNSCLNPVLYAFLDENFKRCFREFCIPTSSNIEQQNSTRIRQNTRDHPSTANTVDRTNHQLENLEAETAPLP
Chain of Delta-type opioid receptor (P41143 whole entry): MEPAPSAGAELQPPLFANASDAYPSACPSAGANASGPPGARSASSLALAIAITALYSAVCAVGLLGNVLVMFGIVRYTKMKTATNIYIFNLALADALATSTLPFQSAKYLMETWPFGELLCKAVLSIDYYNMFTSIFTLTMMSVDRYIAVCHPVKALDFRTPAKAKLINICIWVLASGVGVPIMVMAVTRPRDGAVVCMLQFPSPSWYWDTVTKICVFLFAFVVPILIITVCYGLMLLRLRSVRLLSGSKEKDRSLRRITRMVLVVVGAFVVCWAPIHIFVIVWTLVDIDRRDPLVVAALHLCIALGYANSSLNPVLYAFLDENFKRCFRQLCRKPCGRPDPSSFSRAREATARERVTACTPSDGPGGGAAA
Chain of Female germline-specific tumor suppressor gld-1 (Q17339 whole entry): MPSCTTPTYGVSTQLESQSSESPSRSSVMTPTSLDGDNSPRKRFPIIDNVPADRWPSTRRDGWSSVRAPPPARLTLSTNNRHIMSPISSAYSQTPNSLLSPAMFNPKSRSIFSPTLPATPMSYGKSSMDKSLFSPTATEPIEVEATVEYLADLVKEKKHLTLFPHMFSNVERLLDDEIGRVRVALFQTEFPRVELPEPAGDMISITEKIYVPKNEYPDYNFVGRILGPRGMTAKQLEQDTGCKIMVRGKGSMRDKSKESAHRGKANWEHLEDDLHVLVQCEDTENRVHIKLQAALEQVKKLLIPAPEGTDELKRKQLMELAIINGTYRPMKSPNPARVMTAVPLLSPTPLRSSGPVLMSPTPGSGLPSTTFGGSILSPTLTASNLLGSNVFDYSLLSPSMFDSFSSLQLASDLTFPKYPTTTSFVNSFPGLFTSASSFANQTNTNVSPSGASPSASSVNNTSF
Chain of Beta-galactosidase (Q8VNN2 whole entry): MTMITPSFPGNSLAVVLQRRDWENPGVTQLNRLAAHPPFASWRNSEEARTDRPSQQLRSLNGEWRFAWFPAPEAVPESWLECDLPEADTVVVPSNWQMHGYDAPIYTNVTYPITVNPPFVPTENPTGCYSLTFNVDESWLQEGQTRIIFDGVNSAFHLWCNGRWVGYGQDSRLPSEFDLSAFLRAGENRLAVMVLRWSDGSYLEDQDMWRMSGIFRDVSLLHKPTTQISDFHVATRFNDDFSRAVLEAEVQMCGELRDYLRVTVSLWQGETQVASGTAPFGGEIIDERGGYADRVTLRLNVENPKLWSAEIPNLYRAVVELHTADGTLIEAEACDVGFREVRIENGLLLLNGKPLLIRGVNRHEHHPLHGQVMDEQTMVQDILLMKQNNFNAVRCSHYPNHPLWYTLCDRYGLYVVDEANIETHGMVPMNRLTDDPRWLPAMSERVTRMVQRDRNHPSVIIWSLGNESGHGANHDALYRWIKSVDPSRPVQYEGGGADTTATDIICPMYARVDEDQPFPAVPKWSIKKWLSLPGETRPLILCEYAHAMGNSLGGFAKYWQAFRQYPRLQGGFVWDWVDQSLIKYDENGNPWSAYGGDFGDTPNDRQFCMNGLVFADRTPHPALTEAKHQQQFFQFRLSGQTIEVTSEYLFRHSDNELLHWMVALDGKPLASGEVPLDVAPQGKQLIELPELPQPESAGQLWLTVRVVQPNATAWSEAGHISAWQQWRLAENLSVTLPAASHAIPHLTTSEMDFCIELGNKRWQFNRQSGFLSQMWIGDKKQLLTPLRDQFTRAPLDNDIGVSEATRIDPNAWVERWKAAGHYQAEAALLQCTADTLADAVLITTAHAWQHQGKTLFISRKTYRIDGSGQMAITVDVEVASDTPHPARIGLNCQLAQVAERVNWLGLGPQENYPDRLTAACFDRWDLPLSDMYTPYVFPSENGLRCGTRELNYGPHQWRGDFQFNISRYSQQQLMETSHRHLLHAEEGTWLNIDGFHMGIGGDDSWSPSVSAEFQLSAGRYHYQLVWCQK
Chain of Kallikrein-7 (P49862 whole entry): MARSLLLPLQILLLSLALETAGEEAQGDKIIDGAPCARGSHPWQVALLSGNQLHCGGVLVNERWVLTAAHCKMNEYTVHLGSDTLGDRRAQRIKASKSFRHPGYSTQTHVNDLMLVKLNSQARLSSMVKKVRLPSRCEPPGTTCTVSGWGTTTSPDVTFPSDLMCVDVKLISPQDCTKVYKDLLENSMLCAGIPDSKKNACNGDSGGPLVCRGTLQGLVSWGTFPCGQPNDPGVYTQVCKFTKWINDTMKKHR
Chain of Nonstructural protein 1 (Q194T2 whole entry): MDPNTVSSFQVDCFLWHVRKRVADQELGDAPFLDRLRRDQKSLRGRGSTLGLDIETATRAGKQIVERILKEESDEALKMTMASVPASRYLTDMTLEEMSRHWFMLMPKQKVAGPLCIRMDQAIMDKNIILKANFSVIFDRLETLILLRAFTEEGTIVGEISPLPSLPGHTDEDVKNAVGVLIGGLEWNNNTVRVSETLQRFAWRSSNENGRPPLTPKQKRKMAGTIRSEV
Chain of Acyl-homoserine lactone acylase PvdQ (Q9I194 24-193 limits assumed): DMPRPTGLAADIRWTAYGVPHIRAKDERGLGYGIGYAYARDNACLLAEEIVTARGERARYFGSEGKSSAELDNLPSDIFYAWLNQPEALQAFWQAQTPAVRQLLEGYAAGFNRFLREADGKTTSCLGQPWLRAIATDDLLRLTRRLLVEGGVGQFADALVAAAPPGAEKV
Chain of Acyl-homoserine lactone acylase PvdQ (Q9I194 217-762 limits assumed): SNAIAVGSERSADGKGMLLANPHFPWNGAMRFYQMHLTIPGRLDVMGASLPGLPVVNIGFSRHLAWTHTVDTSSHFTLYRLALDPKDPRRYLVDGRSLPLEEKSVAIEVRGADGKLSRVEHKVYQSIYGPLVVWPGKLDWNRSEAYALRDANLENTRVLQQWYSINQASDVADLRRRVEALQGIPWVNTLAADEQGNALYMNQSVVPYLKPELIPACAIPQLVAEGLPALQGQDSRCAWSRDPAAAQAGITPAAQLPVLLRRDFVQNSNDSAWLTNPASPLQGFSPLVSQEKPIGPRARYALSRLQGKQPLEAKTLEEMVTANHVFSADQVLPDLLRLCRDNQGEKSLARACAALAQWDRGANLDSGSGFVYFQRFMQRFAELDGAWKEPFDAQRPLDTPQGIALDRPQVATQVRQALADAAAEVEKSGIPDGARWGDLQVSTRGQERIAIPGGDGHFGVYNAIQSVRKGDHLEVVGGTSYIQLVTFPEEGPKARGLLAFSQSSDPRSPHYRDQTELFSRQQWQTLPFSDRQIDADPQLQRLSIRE
Chain of Protein Rev (P04618 whole entry): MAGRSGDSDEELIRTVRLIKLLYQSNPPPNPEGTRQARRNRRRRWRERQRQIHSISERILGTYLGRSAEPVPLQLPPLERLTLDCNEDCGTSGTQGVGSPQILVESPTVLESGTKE

Question: For `CC(=O)N1CCN(C2=Nc3cccc4cccc2c34)CC1`, which EC50 (Kallikrein-7) is on record?
Answer: 36.7 µM (inactive)

Question: And the IC50 [1]?
Answer: 7.57 µM (active)

Question: And the IC50 (Protein Rev)?
Answer: 15.8 µM (not active)

Question: For `Cc1cc(NC(=O)c2c(F)c(F)c(F)c(F)c2F)no1`, which AC50 [2] is on record?
Answer: 1.24 µM (active)

Question: For `C=Cc1cnn(-c2ccc(C(C)C)cc2)c(=O)c1Oc1ccc(OC)cc1`, which IC50 [3] is on record?
Answer: 3.9 µM (active)

Question: With `CC(C)c1ccc(-n2ncc(Cl)c(Oc3ccc(CO)cc3)c2=O)cc1` as the compound, how does the IC50 [3] read?
Answer: 3.7 µM (active)

Question: What does the source list for `Cc1ccc(CN(CCNC(=O)c2ccc(CNS(=O)(=O)c3cccc(C)c3)cc2)C(C)C)cc1`?
Answer: IC50 [4]: 1.83 µM (active); IC50 [5]: > 32 µM (inactive); IC50 (Mu-type opioid receptor): > 32 µM (inactive); IC50 [6]: 0.675 µM (active)

Question: With `CN(C)c1ccc(C(=O)Nc2cc(Cl)ccc2C(=O)O)cc1` as the compound, how does the IC50 (Hexokinase) read?
Answer: > 25 µM (inactive)

Question: With `COc1ccc(S(=O)(=O)NCc2ccc(C(=O)NCCN3Cc4ccccc4C3)cc2)cc1` as the compound, how does the IC50 [4] read?
Answer: > 20 µM (inactive)

Question: And the IC50 [5]?
Answer: > 32 µM (inactive)

Question: What about the IC50 (Mu-type opioid receptor) of the same compound?
Answer: > 32 µM (inactive)

Question: What about the IC50 [6] of the same compound?
Answer: > 32 µM (inactive)

Question: For `O=C(Cn1sc2ccccc2c1=O)NC1CCCCC1`, which IC50 (Hexokinase) is on record?
Answer: 9.35 µM (active)

Question: With `C/C(=N\NC(=O)c1cc(Br)ccc1O)c1ccccn1` as the compound, how does the EC50 [7] read?
Answer: 430 nM (active)

Question: And the CC50 (Vero [8])?
Answer: 3.81 µM (active)

Question: And the IC50 [9]?
Answer: > 32 µM

Question: And the IC50 (HEK293 [10])?
Answer: 17.6 µM (active)

Question: And the AC50 (INS1)?
Answer: 1.74 µM (active)

Question: And the EC50 [11]?
Answer: > 20 µM (inactive)

Question: And the EC50 (Beta-galactosidase)?
Answer: > 31.5 µM (inactive)

Question: What about the IC50 (HEK293 [12]) of the same compound?
Answer: > 20 µM (inactive)

Question: What about the EC50 (Streptococcus) of the same compound?
Answer: 3.7 µM (active)

Question: And the IC50 (Nonstructural protein 1)?
Answer: 30.4 µM (active)

Question: And the EC50 (HEK293 [13])?
Answer: > 20 µM (inactive)

Question: What about the IC50 [14] of the same compound?
Answer: 3.54 µM (active)

Question: And the EC50 [15]?
Answer: 10.2 µM (inconclusive)

Question: What about the IC50 (HEK293 [16]) of the same compound?
Answer: > 20 µM (inactive)

Question: And the IC50 (HEK293 [17])?
Answer: 6.47 µM (inactive)

Question: What about the EC50 [18] of the same compound?
Answer: 10.3 µM (active)

Question: And the CC50 [19]?
Answer: 3.47 µM (active)

Question: What about the IC50 (Vero [20]) of the same compound?
Answer: > 25 µM (active)

Question: And the EC50 [21]?
Answer: 5.29 µM (active)

Source: ChEMBL document CHEMBL1201862, “PubChem BioAssay data set” (2004)
